Here are results for 18 compounds from patent US20170334899A1, “AMINO-SUBSTITUTED ISOTHIAZOLES” (Bayer Pharma Aktiengesellschaft, priority 2014, published 2017).

Each structure is given as a SMILES string.

This assay has as its target T1, human kinase Mps-1 (Homo sapiens, UniProt P33981).
T1 construct: N-terminally GST-tagged human full length recombinant Mps-1 kinase; GST (N); purchased Invitrogen, Karslruhe, Germany PV4071
T1 sequence (P33981 1-857): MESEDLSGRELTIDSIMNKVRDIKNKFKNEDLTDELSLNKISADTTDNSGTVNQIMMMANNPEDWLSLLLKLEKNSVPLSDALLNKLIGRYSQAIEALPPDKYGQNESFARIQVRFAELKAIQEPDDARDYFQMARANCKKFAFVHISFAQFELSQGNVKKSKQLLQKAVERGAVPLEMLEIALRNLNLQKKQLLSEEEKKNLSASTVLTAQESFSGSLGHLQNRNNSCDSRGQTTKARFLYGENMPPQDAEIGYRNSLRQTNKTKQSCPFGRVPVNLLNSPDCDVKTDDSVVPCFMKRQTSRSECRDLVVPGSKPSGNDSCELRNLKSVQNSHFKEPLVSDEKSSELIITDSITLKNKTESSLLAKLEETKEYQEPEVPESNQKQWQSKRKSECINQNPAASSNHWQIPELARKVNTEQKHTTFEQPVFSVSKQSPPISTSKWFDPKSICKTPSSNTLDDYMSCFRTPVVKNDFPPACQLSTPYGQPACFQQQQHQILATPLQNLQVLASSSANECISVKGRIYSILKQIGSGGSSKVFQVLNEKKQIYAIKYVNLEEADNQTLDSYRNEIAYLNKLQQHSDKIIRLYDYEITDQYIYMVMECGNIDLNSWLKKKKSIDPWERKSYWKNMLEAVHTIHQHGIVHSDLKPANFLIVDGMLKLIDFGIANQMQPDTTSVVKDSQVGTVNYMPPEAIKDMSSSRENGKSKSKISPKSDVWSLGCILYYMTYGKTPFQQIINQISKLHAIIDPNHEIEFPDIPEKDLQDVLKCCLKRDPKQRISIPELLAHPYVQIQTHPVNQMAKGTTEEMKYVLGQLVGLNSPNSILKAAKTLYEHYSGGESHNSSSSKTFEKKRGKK
The experiment in a line: Mps-1 kinase assay (TR-FRET). It is filed as biochemical. The conditions noted are these: Mps-1 TR-FRET kinase assay; avg; read-out: Mps1 avg (IC50 [mol/l]). The method, then: The human kinase Mps-1 phosphorylates a biotinylated substrate peptide. Detection of the phosphorylated product is achieved by time-resolved fluorescence resonance energy transfer (TR-FRET) from Europium-labelled anti-phospho-Serine/Threonine antibody as donor to streptavidin labelled with cross-linked allophycocyanin (SA-XLent) as acceptor. Compounds are tested for their inhibition of the kinase activity.
N-terminally GST-tagged human full length recombinant Mps-1 kinase (purchased from Invitrogen, Karslruhe, Germany, cat. no PV4071) was used. As substrate for the kinase reaction a biotinylated peptide of the amino-acid sequence biotin-Ahx-PWDPDDADITEILG (C-terminus in amide form, purchased from Biosyntan GmbH, Berlin) was used.
For the assay 50 nl of a 100-fold concentrated solution of the test compound in DMSO was pipetted into a black low volume 384we11 microtiter plate (Greiner Bio-One, Frickenhausen, Germany), 2 μl of a solution of Mps-1 in assay buffer [0.1 mM sodium-ortho-vanadate, 10 mM MgCl2,2 mM DTT, 25 mM Hepes pH 7.7, 0.05% BSA (w/v), 0.001% Pluronic F-127] were added and the mixture was incubated for 15 min at 22° C. to allow pre-binding of the test compounds to Mps-1 before the start of the kinase reaction. Then the kinase reaction was started by the addition of 3 μl of a solution of 16.7 μM adenosine-tri-phosphate (ATP, 16.7 μM=>final conc. in the 5 μl assay volume is 10 μM) and peptide substrate (1.67 μM=>final conc. in the 5 μl assay volume is 1 μM) in assay buffer and the resulting mixture was incubated for a reaction time of 60 min at 22° C. The concentration of Mps-1 in the assay was adjusted to the activity of the enzyme lot and was chosen appropriate to have the assay in the linear range, typical enzyme concentrations were in the range of about 0.5 nM (final conc. in the 5 μl assay volume). The reaction was stopped by the addition of 5 μl of a solution of TR-FRET detection reagents (100 mM Hepes pH 7.4, 0.1% BSA, 40 mM EDTA, 140 nM Streptavidin-XLent [#61GSTXLB, Fa. Cis Biointernational, Marcoule, France], 1.5 nM anti-phospho(Ser/Thr)-Europium-antibody [#AD0180, PerkinElmer LAS, Rodgau-Jugesheinn, Germany]. Instead of the 1.5 nM anti-phospho(Ser/Thr)-Europium-antibody a mixture of 2 nM unlabeled anti-phospho ser/thr-pro antibody MPM-2 [Millipore cat. #05-368] and 1 nM LANCE EU-W1024 labeled anti-mouse IgG antibody [Perkin-Elmer, product no. AD0077] can be used).
The resulting mixture was incubated 1 h at 22° C. to allow the binding of the phosphorylated peptide to the anti-phospho(Ser/Thr)-Europium-antibody. Subsequently the amount of phosphorylated substrate was evaluated by measurement of the resonance energy transfer from the Europium-labelled anti-phospho(Ser/Thr) antibody to the Streptavidin-XLent. Therefore, the fluorescence emissions at 620 nm and 665 nm after excitation at 350 nm was measured in a Viewlux TR-FRET reader (PerkinElmer LAS, Rodgau-Jugesheinn, Germany). The “blank-corrected normalized ratio” (a Viewlux specific readout, similar to the traditional ratio of the emissions at 665 nm and at 622 nm, in which blank and Eu-donor crosstalk are subtracted from the 665 nm signal before the ratio is calculated) was taken as the measure for the amount of phosphorylated substrate. The data were normalised (enzyme reaction without inhibitor=0% inhibition, all other assay components but no enzyme=100% inhibition).
In general terms: TR-FRET usually uses a lanthanide donor and a delayed reading to cut background.
Regarding `Cc1nsc(Nc2cnc3ccccc3n2)c1C(=O)Nc1cccc(C(=O)N[C@H](C(=O)O)[C@@H](C)OC(C)(C)C)c1` [Example 104, O-tert-Butyl-N-[3-({[3-methyl-5-(quinoxalin-2-ylamino)-1,2-thiazol-4-yl]-carbonyl}amino)benzoyl]threonine], the IC50 is 16 µM.

On to `Cc1nsc(Nc2cncc(C(F)(F)F)n2)c1C(=O)Nc1ccc(OCC2CCN(C(=O)OC(C)(C)C)C2)nc1` (stereo not drawn) [Example 110, tert-Butyl 3-{[(5-{[(3-methyl-5-{[6-(trifluoromethyl)pyrazin-2-yl]amino}-1,2-thiazol-4-yl)carbonyl]amino}pyridin-2-yl)oxy]methyl}pyrrolidine-1-carboxylate], for which the IC50 is at least 20 µM.

With `Cc1nsc(Nc2ccc(C#N)cn2)c1C(=O)Nc1ccc(N[C@@H](C)C(=O)OC(C)(C)C)nc1` [Example 170, tert-butyl N-{5-[({5-[(5-cyanopyridin-2-yl)amino]-3-methyl-1,2-thiazol-4-yl}carbonyl)amino]pyridin-2-yl}alaninate], the IC50 is over 20 µM.

Take `CCCN1CC[C@@H](Oc2ccc(NC(=O)c3c(C)nsc3Nc3cnc(C(F)(F)F)cn3)cn2)[C@@H](F)C1` [Example 140, N-(6-{[(3S,4R)-3-fluoro-1-propylpiperidin-4-yl]oxy}pyridin-3-yl)-3-methyl-5-{[5-(trifluoromethyl)pyrazin-2-yl]amino}-1,2-thiazole-4-carboxamide]: the IC50 is over 20 µM.

For `Cc1nsc(Nc2cnc(C(F)(F)F)cn2)c1C(=O)Nc1ccc(C(=O)NCCN2CCCC(F)(F)C2)cc1` [Example 153, N-(4-{[2-(3,3-difluoropiperidin-1-yl)ethyl]carbamoyl}phenyl)-3-methyl-5-{[5-(trifluoromethyl)pyrazin-2-yl]amino}-1,2-thiazole-4-carboxamide], the IC50 was over 20 µM.

Regarding `Cc1nsc(Nc2cnc3ccccc3n2)c1C(=O)Nc1ccc(S(C)(=O)=O)cc1` [Example 115, 3-Methyl-N-[4-(methylsulfonyl)phenyl]-5-(quinoxalin-2-ylamino)-1,2-thiazole-4-carboxamide], the IC50 was at least 20 µM.

Regarding `Cc1nsc(Nc2cnc(C(F)(F)F)cn2)c1C(=O)Nc1ccc(OC2CCN(CC(F)F)CC2)nc1` [Example 8, N-(6-{[1-(2,2-Difluoroethyl)piperidin-4-yl]oxy}pyridin-3-yl)-3-methyl-5-{[5-(trifluoromethyl)pyrazin-2-yl]amino}-1,2-thiazole-4-carboxamide], the IC50 was at least 20 µM.

Regarding `Cc1nsc(Nc2cnc3ccccc3n2)c1C(=O)Nc1cccc(C(=O)NCC(=O)O)c1` [Example 99, N-[3-({[3-Methyl-5-(quinoxalin-2-ylamino)-1,2-thiazol-4-yl]carbonyl}amino)benzoy]-glycine], the IC50 was 9 µM.

For the compound `Cc1nsc(Nc2cnc(C(F)(F)F)cn2)c1C(=O)Nc1ccc(O[C@H]2CCN(CCC(F)(F)F)C[C@H]2F)nc1` [Example 146, N-(6-{[(3R,4S)-3-fluoro-1-(3,3,3-trifluoropropyl)piperidin-4-yl]oxy}pyridin-3-yl)-3-methyl-5-{[5-(trifluoromethyl)pyrazin-2-yl]amino}-1,2-thiazole-4-carboxamide], the IC50 was over 20 µM.

On to `Cc1nsc(Nc2cnc(C(F)(F)F)cn2)c1C(=O)Nc1ccc(C(=O)N2CCN(CC(F)F)CC2)cc1` [Example 154, N-(4-{[4-(2,2-difluoroethyl)piperazin-1-yl]carbonyl}phenyl)-3-methyl-5-{[5-(trifluoromethyl)pyrazin-2-yl]amino}-1,2-thiazole-4-carboxamide], for which the IC50 was over 20 µM.

Consider `Cc1nsc(Nc2cnc(C(F)(F)F)cn2)c1C(=O)Nc1ccc(C(=O)O)cc1` [Example 97, 4-{[(3-Methyl-5-{[5-(trifluoromethyl)pyrazin-2-yl]amino}-1,2-thiazol-4-yl)carbony]-amino}benzoic acid], for which the IC50 is at least 20 µM.

Consider `Cc1nsc(Nc2cnc(C(F)(F)F)cn2)c1C(=O)Nc1ccc(OC2CCN(CCF)CC2)nc1` [Example 7, N-(6-{[1-(2-Fluoroethyl)piperidin-4-yl]oxy}pyridin-3-yl)-3-methyl-5-{[5-(trifluoromethyl)pyrazin-2-yl]amino}-1,2-thiazole-4-carboxamide], for which the IC50 was at least 20 µM.

On to `Cc1nsc(Nc2cnc(C(F)(F)F)cn2)c1C(=O)Nc1ccc(O[C@@H]2CCN(CC(F)F)C[C@@H]2F)nc1` [Example 137, N-(6-{[(3S,4R)-1-(2,2-difluoroethyl)-3-fluoropiperidin-4-yl]oxy}pyridin-3-yl)-3-methyl-5-{[5-(trifluoromethyl)pyrazin-2-yl]amino}-1,2-thiazole-4-carboxamide], for which the IC50 is over 20 µM.

Consider `Cc1nsc(Nc2cncc(C(F)(F)F)n2)c1C(=O)Nc1ccc(F)c(OC2CCN(C(=O)OC(C)(C)C)CC2)c1` [Example 168, tert-butyl 4-(2-fluoro-5-{[(3-methyl-5-{[6-(trifluoromethyl)pyrazin-2-yl]amino}-1,2-thiazol-4-yl)carbonyl]amino}phenoxy)piperidine-1-carboxylate], for which the IC50 was over 20 µM.

In the case of `Cc1nsc(Nc2cnc(C(F)(F)F)cn2)c1C(=O)Nc1ccc(O[C@@H]2CCN(CC(F)(F)F)C[C@@H]2F)nc1` [Example 138, N-(6-{[(3S,4R)-3-fluoro-1-(2,2,2-trifluoroethyl)piperidin-4-yl]oxy}pyridin-3-yl)-3-methyl-5-{[5-(trifluoromethyl)pyrazin-2-yl]amino}-1,2-thiazole-4-carboxamide], the IC50 is over 20 µM.

As for `Cc1nsc(Nc2cnc(C(F)(F)F)cn2)c1C(=O)Nc1ccc(OC[C@@H]2CCN(CC(F)(F)F)C2)nc1` [Example 128, 3-Methyl-N-(6-{[(3R)-1-(2,2,2-trifluoroethyl)pyrrolidin-3-yl]methoxy}pyridin-3-yl)-5-{[5-(trifluoromethyl)pyrazin-2-yl]amino}-1,2-thiazole-4-carboxamide], the IC50 is over 20 µM.

`Cc1nsc(Nc2cnc(C(F)(F)F)cn2)c1C(=O)Nc1ccc(OCC2CCN(C(=O)OC(C)(C)C)C2)nc1` (stereo not drawn) [Example 109, tert-Butyl 3-{[(5-{[(3-methyl-5-{[5-(trifluoromethyl)pyrazin-2-yl]amino}-1,2-thiazol-4-yl)carbonyl]amino}pyridin-2-yl)oxy]methyl}pyrrolidine-1-carboxylate]: the IC50 was at least 20 µM.

Take `Cc1nsc(Nc2ccc(C#N)cn2)c1C(=O)Nc1ccc(C(=O)OC(C)(C)C)cc1` [Example 98, tert-Butyl 4-[({5-[(5-cyanopyridin-2-yl)amino]-3-methyl-1,2-thiazol-4-yl}carbonyl)-amino]benzoate]: the IC50 is at least 20 µM.
